The structures appear in SMILES notation.

What all share (format): binding
Assay [1] has as its target T1, GDP-loaded K-Ras (1-169) G12D, C51S, C80L, C118S (Homo sapiens, UniProt P01116, C118S/C51S/C80L/G12D).
T1 construct: GDP-loaded K-Ras (1-169) G12D, C51S, C80L, C118S
As to the kind of experiment: K-Ras G12D(GDP) cross-linking assay (conjugate formation, TOF mass spectrometry). The arrangement: key: 0: No observed x-linking; +: 0 < x ≤ 20; ++: 20 < x ≤ 40; +++: 40 < x ≤ 100. The conditions noted are these: percent covalently modified K-Ras by MS, room temperature, typical compound conc. 2, 10, 25 μM, endpoints 1 and 24 h. In a few lines:
(§1)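 5 μM protein (final, from 50 μM) in HEPES/NaCl/MgCl2 buffer pH 7.4 with compound typically at 2, 10 and 25 μM, room temperature, 1 and 24 h endpoints; formic acid quench. Intact-protein LC–TOF MS; percent modification is covalent adduct peak height over total K-Ras peak height.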

In another assay the target is K-Ras G12S (Homo sapiens, UniProt P01116, G12S). As to the kind of experiment: K-Ras G12S cross-linking assay (comparable procedure, conjugate formation, TOF mass spectrometry). The arrangement: key: 0: No observed x-linking. As for the experimental part: Protocol: K-Ras G12D(GDP) Cross-Linking Assay
Note: while the following protocol outlines the procedure for K-Ras G12D(GDP), a person of skill in the art may substitute other Ras proteins, and may also substitute a non-hydrolyzable GTP analog for GDP to study GTP bound Ras protein.
GDP-loaded K-Ras (1-169) G12D, C51S, C80L, C118S and GDP-loaded K-Ras (1-169) C51S, C80L, C118S were adjusted to 50 μM in K-Ras assay buffer (12.5 mM HEPES, 75 mM NaCl and 1 mM MgCl2 at pH 7.4). A 5 μL aliquot of each protein solution was added to each well of a 96-well microplate containing 40 μL of assay buffer. Initial compound stocks were prepared in DMSO at 100 times their final assay concentration. Compounds were then diluted 10-fold into K-Ras assay buffer to 10 times their final concentration. A 5 μL aliquot of each diluted compound solution was added to each protein solution in the 96-well microplate to initiate the reaction, which then proceeded at room temperature. Typical final compound concentrations were 2, 10, and 25 μM. At each time point, the reactions were analyzed immediately or quenched with 5 μL of a 5% formic acid solution and kept at 4° C. until analysis. Typical assay endpoints were 1 and 24 h.
Data collection took place on an Agilent 6230 TOF Mass Spectrometer. Complete reactions were injected onto a C4 reverse-phase column to separate protein from buffer components prior to entering the mass spectrometer. The proteins were eluted from the column by increasing acetonitrile fraction in the mobile phase and fed directly into the mass analyzer. Initial analysis of raw data took place in Agilent MassHunter BioConfirm software and consisted of deconvolution of multiple protein charge states with the maximum entropy algorithm, with a mass step of 1 Da. The heights of all deconvoluted protein masses were exported for further data analysis. The percent modification of each protein was then determined by calculating the peak height of the covalently modified K-Ras species as a percentage of the sum total of K-Ras protein peak height.

Assay [2] addresses T2, GDP-loaded K-Ras (1-169) C51S, C80L, C118S (Homo sapiens, UniProt P01116, C118S/C51S/C80L).
T2 construct: GDP-loaded K-Ras (1-169) C51S, C80L, C118S
As to the kind of experiment: K-Ras WT (GDP) cross-linking assay (conjugate formation, TOF mass spectrometry). The arrangement: key: 0: No observed x-linking; +: 0 < x ≤ 20; ++: 20 < x ≤ 40; +++: 40 < x ≤ 100. The settings on record: percent covalently modified K-Ras by MS, room temperature, typical compound conc. 2, 10, 25 μM, endpoints 1 and 24 h. In a few lines: as §1

Where [3] appears, read: Table 4, percent covalently modified K-Ras by MS.
Setting [4] is: Table 5, percent covalently modified K-Ras by MS.

Take `CCCN=C=NCCCN(C)c1nc(=O)n(-c2c(C)ccnc2C(C)C)c2nc(-c3ccccc3F)c(F)cc12` [Example 55, 6-fluoro-7-(2-fluorophenyl)-1-(2-isopropyl-4-methylpyridin-3-yl)-4-(methyl(3-(((propylimino)methylene)amino)propyl)amino)pyrido[2,3-d]pyrimidin-2(1H)-one]: the “G12D x-linking (%)” value in assay [1] (Table 4) is “++ (20 < x ≤ 40)”. Also, the “G12S x-linking (%)” value on K-Ras G12S (setting [3]) is given as “++ (10 < x ≤ 100)”. Besides, the “WT x-linking (%)” value in assay [2] (Table 4) is on record as “++ (20 < x ≤ 100)”.
Consider `Cc1cccc2cccc(N3CCc4c(nc(OC[C@@H]5CCCN5C)nc4N4CCC(N=C=NC5CCN(c6ccccc6)CC5)CC4)C3)c12` [Example 84, N-(1-(7-(8-methylnaphthalen-1-yl)-2-(((S)-1-methylpyrrolidin-2-yl)methoxy)-5,6,7,8-tetrahydropyrido[3,4-d]pyrimidin-4-yl)piperidin-4-yl)-N-(1-phenylpiperidin-4-yl)methanediimine], for which the “G12D x-linking (%)” value in assay [1] (Table 5) is reported as “+ (0 < x ≤ 20)”. Further, the “G12S x-linking (%)” value at K-Ras G12S (setting [4]) is “+ (0 < x ≤ 10)”. In addition, the “WT x-linking (%)” value in assay [2] (Table 5) was “+ (0 < x ≤ 20)”.
Consider `Cc1cccc2cccc(N3CCc4c(nc(OC[C@@H]5CCCN5C)nc4N4CCC(N=C=NCc5ccccc5)CC4)C3)c12` [Example 24, N-benzyl-N-(1-(7-(8-methylnaphthalen-1-yl)-2-(((S)-1-methylpyrrolidin-2-yl)methoxy)-5,6,7,8-tetrahydropyrido[3,4-d]pyrimidin-4-yl)piperidin-4-yl)methanediimine], for which the “G12D x-linking (%)” value in assay [1] (Table 4) was “+ (0 < x ≤ 20)”. In addition, the “G12S x-linking (%)” value at K-Ras G12S (setting [3]) is on record as “+ (0 < x ≤ 10)”. Besides, the “WT x-linking (%)” value in assay [2] (Table 4) is recorded as “+ (0 < x ≤ 20)”.
Take `CN(CCN=C=Nc1ccccc1)c1ncnc2c(F)c(-c3ccccc3F)c(Cl)cc12` [Example 7, 6-chloro-8-fluoro-7-(2-fluorophenyl)-N-methyl-N-(2-(((phenylimino)methylene)amino)ethyl)quinazolin-4-amine]: in assay [1] (Table 4), the “G12D x-linking (%)” value is reported as “+ (0 < x ≤ 20)”. Further, the “G12S x-linking (%)” value at K-Ras G12S (setting [3]) is on record as “+ (0 < x ≤ 10)”. The “WT x-linking (%)” value in assay [2] (Table 4) is listed as “+ (0 < x ≤ 20)”.
With `Cc1cccc2cccc(N3CCc4c(nc(OC[C@@H]5CCCN5C)nc4NCCNC(=O)NCCCl)C3)c12` [Example 36, (S)-1-(2-chloroethyl)-3-(2-((7-(8-methylnaphthalen-1-yl)-2-((1-methylpyrrolidin-2-yl)methoxy)-5,6,7,8-tetrahydropyrido[3,4-d]pyrimidin-4-yl)amino)ethyl)urea], the “G12D x-linking (%)” value in assay [1] (Table 4) was “+ (0 < x ≤ 20)”. Also, the “G12S x-linking (%)” value at K-Ras G12S (setting [3]) was “+ (0 < x ≤ 10)”. In addition, the “WT x-linking (%)” value in assay [2] (Table 4) is “+ (0 < x ≤ 20)”.
Consider `COCCN=C=NCC1CCN(c2nc(=O)n(-c3c(C)ccnc3C(C)C)c3nc(-c4ccccc4F)c(F)cc23)CC1` [Example 70, 6-fluoro-7-(2-fluorophenyl)-1-(2-isopropyl-4-methylpyridin-3-yl)-4-(4-(((((2-methoxyethyl)imino)methylene)amino)methyl)piperidin-1-yl)pyrido[2,3-d]pyrimidin-2(1H)-one], for which the “G12D x-linking (%)” value in assay [1] (Table 5) was “++ (20 < x ≤ 40)”. The “G12S x-linking (%)” value at K-Ras G12S (setting [4]) is on record as “++ (10 < x ≤ 100)”. Besides, the “WT x-linking (%)” value in assay [2] (Table 5) is “++ (20 < x ≤ 100)”.
With `CN(CCN=C=NCc1ccccc1)c1ncnc2c(F)c(-c3ccccc3F)c(Cl)cc12` [Example 8, N-(2-(((benzylimino)methylene)amino)ethyl)-6-chloro-8-fluoro-7-(2-fluorophenyl)-N-methylquinazolin-4-amine], the “G12D x-linking (%)” value in assay [1] (Table 4) is on record as “+ (0 < x ≤ 20)”. The “G12S x-linking (%)” value at K-Ras G12S (setting [3]) was “+ (0 < x ≤ 10)”. The “WT x-linking (%)” value in assay [2] (Table 4) is “+ (0 < x ≤ 20)”.
Regarding `Cc1cccc2cccc(N3CCc4c(nc(OC[C@@H]5CCCN5C)nc4N4CCC(N=C=NCc5ccc(Cl)cc5)CC4)C3)c12` [Example 49, N-(4-chlorobenzyl)-N-(1-(7-(8-methylnaphthalen-1-yl)-2-(((S)-1-methylpyrrolidin-2-yl)methoxy)-5,6,7,8-tetrahydropyrido[3,4-d]pyrimidin-4-yl)piperidin-4-yl)methanediimine], the “G12D x-linking (%)” value in assay [1] (Table 4) was “+ (0 < x ≤ 20)”. Also, the “G12S x-linking (%)” value at K-Ras G12S (setting [3]) is reported as “+ (0 < x ≤ 10)”. In addition, the “WT x-linking (%)” value in assay [2] (Table 4) is recorded as “+ (0 < x ≤ 20)”.
For `COCCN=C=NC1CCN(c2nc(=O)n(-c3c(C)ccnc3C(C)C)c3nc(-c4ccccc4F)c(F)cc23)CC1` [Example 54, 6-fluoro-7-(2-fluorophenyl)-1-(2-isopropyl-4-methylpyridin-3-yl)-4-(4-((((2-methoxyethyl)imino)methylene)amino)piperidin-1-yl)pyrido[2,3-d]pyrimidin-2(1H)-one], the “G12D x-linking (%)” value in assay [1] (Table 4) is listed as “+ (0 < x ≤ 20)”. Moreover, the “G12S x-linking (%)” value on K-Ras G12S (setting [3]) is recorded as “+ (0 < x ≤ 10)”. Also, in assay [2] (Table 4), the “WT x-linking (%)” value is listed as “+ (0 < x ≤ 20)”.
Turning to `Cc1cccc2cccc(N3CCc4c(nc(OC[C@@H]5CCCN5C)nc4N4CCC(N=C=Nc5ccccc5)CC4)C3)c12` [Example 48, N-(1-(7-(8-methylnaphthalen-1-yl)-2-(((S)-1-methylpyrrolidin-2-yl)methoxy)-5,6,7,8-tetrahydropyrido[3,4-d]pyrimidin-4-yl)piperidin-4-yl)-N-phenylmethanediimine], the “G12D x-linking (%)” value in assay [1] (Table 4) is reported as “+ (0 < x ≤ 20)”. In addition, the “G12S x-linking (%)” value at K-Ras G12S (setting [3]) is listed as “+ (0 < x ≤ 10)”. Also, the “WT x-linking (%)” value in assay [2] (Table 4) was “+ (0 < x ≤ 20)”.
Take `COCCN=C=N[C@H]1CCN(c2nc(OC[C@@H]3CCCN3C)nc3c2CCN(c2cccc4cccc(C)c24)C3)C1` [Example 74, N-(2-methoxyethyl)-N—((S)-1-(7-(8-methylnaphthalen-1-yl)-2-(((S)-1-methylpyrrolidin-2-yl)methoxy)-5,6,7,8-tetrahydropyrido[3,4-d]pyrimidin-4-yl)pyrrolidin-3-yl)methanediimine]: the “G12D x-linking (%)” value in assay [1] (Table 5) was “+++ (40 < x ≤ 100)”. Moreover, at K-Ras G12S (setting [4]), the “G12S x-linking (%)” value is reported as “++ (10 < x ≤ 100)”. In assay [2] (Table 5), the “WT x-linking (%)” value is “++ (20 < x ≤ 100)”.
The corresponding values for `COCCN=C=N[C@@H]1CCN(c2nc(OC[C@@H]3CCCN3C)nc3c2CCN(c2cccc4cccc(C)c24)C3)C1` [Example 73, N-(2-methoxyethyl)-N—((R)-1-(7-(8-methylnaphthalen-1-yl)-2-(((S)-1-methylpyrrolidin-2-yl)methoxy)-5,6,7,8-tetrahydropyrido[3,4-d]pyrimidin-4-yl)pyrrolidin-3-yl)methanediimine] are “+++ (40 < x ≤ 100)”, “++ (10 < x ≤ 100)” and “++ (20 < x ≤ 100)”.
In the case of `Cc1cccc2cccc(N3CCc4c(nc(OC[C@@H]5CCCN5C)nc4N(C)CCCN=C=NCc4ccc(Cl)cc4)C3)c12` [Example 32, N-(3-((((4-chlorobenzyl)imino)methylene)amino)propyl)-N-methyl-7-(8-methylnaphthalen-1-yl)-2-(((S)-1-methylpyrrolidin-2-yl)methoxy)-5,6,7,8-tetrahydropyrido[3,4-d]pyrimidin-4-amine], the “G12D x-linking (%)” value in assay [1] (Table 4) is given as “+ (0 < x ≤ 20)”. Moreover, the “G12S x-linking (%)” value at K-Ras G12S (setting [3]) is given as “+ (0 < x ≤ 10)”. Further, the “WT x-linking (%)” value in assay [2] (Table 4) is “+ (0 < x ≤ 20)”.
For `Cc1cccc2cccc(N3CCc4c(nc(OC[C@@H]5CCCN5C)nc4NCCN(C)C(=O)NCCCl)C3)c12` [Example 37, (S)-3-(2-chloroethyl)-1-methyl-1-(2-((7-(8-methylnaphthalen-1-yl)-2-((1-methylpyrrolidin-2-yl)methoxy)-5,6,7,8-tetrahydropyrido[3,4-d]pyrimidin-4-yl)amino)ethyl)urea], the “G12D x-linking (%)” value in assay [1] (Table 4) came to 0. At K-Ras G12S (setting [3]), the “G12S x-linking (%)” value stood at 0. The “WT x-linking (%)” value in assay [2] (Table 4) worked out at 0.

(Values after patent US20230100838A1 (Revolution Medicines, Inc., priority 2019, published 2023).)
